Measured values published in PubChem BioAssay (NCI).
≈ marks a conversion by molar mass, not a printed value.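 96-well plates; 48 h exposure; 5 concentrations. Endpoints by linear interpolation between flanking doses. Not reached: highest tested concentration assigned. Abbreviation: GI50, concentration required for 50% inhibition of growth. Definition used: TGI = concentration required for complete inhibition of growth.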 Where a SMILES comes first, the peptide text is derived from it. The star is where a group is joined. Boc = CC(C)(C)OC(=O)*; OcHex = C1CCC(O*)CC1

Tests used:
Assay in all cases: growth of human tumour cells (NCI), 48 h
[1] = test system: NCI-H23 lung
[2] = test system: SF-268 CNS
[3] = test system: SK-OV-3 ovarian
[4] = test system: SK-MEL-5 melanoma
[5] = test system: NCI/ADR-RES ovarian
[6] = test system: HS 578T breast
[7] = test system: HT29 colon
[8] = test system: SK-MEL-28 melanoma
[9] = test system: DU-145 prostate
[10] = test system: U251 CNS
[11] = test system: M14 melanoma
[12] = test system: KM12 colon
[13] = test system: MOLT-4 leukemia
[14] = test system: OVCAR-4 ovarian
[15] = test system: MDA-MB-435
[16] = test system: COLO 205 colon
[17] = test system: MALME-3M melanoma
[18] = test system: CCRF-CEM leukemia
[19] = test system: PC-3 prostate
[20] = test system: OVCAR-8 ovarian
[21] = test system: SN12C renal
[22] = test system: SK-MEL-2 melanoma
[23] = test system: SNB-19 CNS
[24] = test system: MCF7 breast
[25] = test system: SF-539 CNS
[26] = test system: 786-0 renal
[27] = test system: SW-620 colon
[28] = test system: TK-10 renal
[29] = test system: SNB-75 CNS
[30] = test system: SF-295 CNS
[31] = test system: RXF 393 renal
[32] = test system: HOP-92 NSCLC
[33] = test system: LOX IMVI melanoma
[34] = test system: CAKI-1 renal
[35] = test system: K-562 leukemia
[36] = test system: HCT-15 colon
[37] = test system: RPMI-8226 leukemia
[38] = test system: OVCAR-3 ovarian
[39] = test system: OVCAR-5 ovarian
[40] = test system: A549 NSCLC
[41] = test system: NCI-H226 lung
[42] = test system: HCT-116 colon
[43] = test system: UACC-257 melanoma
[44] = test system: HOP-62 NSCLC
[45] = test system: MDA-MB-231 breast
[46] = test system: UACC-62 melanoma
[47] = test system: HL-60(TB) leukemia
[48] = test system: BT-549 breast
[49] = test system: UO-31 renal
[50] = test system: IGROV1 ovarian
[51] = test system: EKVX NSCLC
[52] = test system: NCI-H522 lung

SMILES: NS(=O)(=O)c1nnc(NC(=S)NC(=O)Nc2ccc(Cl)c(Cl)c2)s1
- TGI [1]: 40.4 µM
- TGI [2]: > 100 µM
- TGI [3]: 62.1 µM
- TGI [4]: 49 µM
- TGI [5]: 62.6 µM
- TGI [6]: 67.2 µM
- TGI [7]: 71.9 µM
- TGI [8]: > 100 µM
- TGI [9]: 53.9 µM
- TGI [10]: > 100 µM
- TGI [11]: 36.1 µM
- TGI [12]: 39.9 µM
- TGI [13]: > 100 µM
- TGI [14]: 55.2 µM
- TGI [15]: 41.9 µM
- TGI [16]: 39.1 µM
- TGI [17]: 59 µM
- TGI [18]: > 100 µM
- TGI [19]: > 100 µM
- TGI [20]: 69.7 µM
- TGI [21]: 68.2 µM
- TGI [22]: 88 µM
- TGI [23]: 94.8 µM
- TGI [24]: > 100 µM
- TGI [25]: 21.8 µM
- TGI [26]: > 100 µM
- TGI [27]: 65.5 µM
- TGI [28]: > 100 µM
- TGI [29]: 50 µM
- TGI [30]: 62.1 µM
- TGI [31]: 42.3 µM
- TGI [32]: 36.2 µM
- TGI [33]: 34 µM
- TGI [34]: 63.6 µM
- TGI [35]: > 100 µM
- TGI [36]: 48.9 µM
- TGI [37]: > 100 µM
- TGI [38]: 62 µM
- TGI [39]: 67.7 µM
- TGI [40]: > 100 µM
- TGI [41]: > 100 µM
- TGI [42]: 44.3 µM
- TGI [43]: 65.1 µM
- TGI [44]: 63.7 µM
- TGI [45]: > 100 µM
- TGI [46]: 33.1 µM
- TGI [47]: 87.6 µM
- TGI [48]: 50.2 µM
- TGI [49]: 48 µM
- TGI [50]: 46.7 µM
- TGI [51]: 80.1 µM
- TGI [52]: 31 µM

SMILES: CC(C)CC(NC(=O)OC(C)(C)C)C(=O)NC(CCC(=O)OC1CCCCC1)C(N)=O (stereo not drawn) (Boc-Leu-Glu(OcHex)-NH2; configuration not given here)
- GI50 [3]: 92.7 µg/mL (≈ 210 µM)
- GI50 [8]: 44.8 µg/mL (≈ 102 µM)
- GI50 [11]: 78.8 µg/mL (≈ 178 µM)
- GI50 [13]: 62.9 µg/mL (≈ 142 µM)
- GI50 [17]: 42.9 µg/mL (≈ 97.2 µM)
- GI50 [29]: 71.5 µg/mL (≈ 162 µM)
- GI50 [32]: 12.5 µg/mL (≈ 28.4 µM)
- TGI [32]: 36.7 µg/mL
- GI50 [35]: 51.9 µg/mL (≈ 118 µM)
- GI50 [43]: 51.2 µg/mL (≈ 116 µM)
- GI50 [46]: 94.8 µg/mL (≈ 215 µM)
- GI50 [48]: 63.5 µg/mL (≈ 144 µM)
- GI50 [49]: 94.8 µg/mL (≈ 215 µM)
- GI50 [52]: 12.2 µg/mL (≈ 27.7 µM)
- TGI [52]: 45.9 µg/mL
